Experiments:
[1] = system: pPAK4(S474)/pPAK5(S602)/PAK6(S560) in MDA-MB-231 cells; assay: pPAK immunoblot; type: cell-based, human; settings: 0.3 and 1 μM, up to 3 h incubation
[2] = system: effector phosphorylation in empty vector expressing Ba/F3 cells; assay: Phospho-flow cytometry of effectors; type: cell-based, murine; settings: 3 μM, 30 min
Method: (§1) FIG. 13: IODVA1 decreases Rac activation and signaling. (A) Ba/F3 cells expressing p190-BCR-ABL1 were treated with IODVA1 (3 μM) as indicated and levels of active Rac (Rac-GTP) were assessed by pull-down using GST-PAK-GBD, followed by immunoblotting (upper panel) and densitometric quantification (lower panel). (B) Flow-cytometry analysis of pJNK, pS6, p4EBP, pPAK1, and pAKT of Ba/F3 cells expressing Mieg3 empty vector (light and dark blue) or p190-BCR-ABL1 (light and dark salmon) and treated with vehicle control or IODVA1 (3 μM) for 30 min. (C) Representative histogram data of the cell cycle analysis of Ba/F3 cells expressing p190-BCR-ABL and treated with vehicle control or IODVA1 (1, 3, and 10 μM) for 20 h. (D) Quantification of the average number of colonies of bone marrow wild-type (black) and Rac1^Δ/Δ+Rac2^−/− (red) p190-BCR-ABL1 leukemic cells treated with vehicle control or IODVA1 (IO1, 1 μM). ns—not significant, * p<0.05, ** p<0.01, *** p<0.001. (E) As in FIG. 13A, but cells were incubated for a fixed amount of time (1 h) at the indicated IODVA1 concentrations. (F) Ba/F3 cells expressing p190-BCR-ABL1 were treated with IODVA1 (3 μM) and lysed at the indicated times. Cell lysates were separated on SDS-PAGE and immunoblotted for pPAK(T423), pBAD(S136), and BAD. (G) Ba/F3 cells expressing p190-BCR-ABL1 were treated with IODVA1 (3 μM) and levels of active Cdc42 (Cdc42-GTP) and Rho (Rho-GTP) were assessed by pull-down at the indicated times using GST-PAK-GBD and GST-Rhotekin respectively, followed by immunoblotting (left panel) and densitometric quantification (right panel). (H) Morphology of GFP^+ leukemic colonies (left panel). Western blot analysis of Rac1 and Rac2 protein expression in Rac1^Δ/Δ+Rac2^−/− cells post poly-I:C injections (right panel). (I) Intrinsic (blue line) and p50GAP-stimulated GTP-hydrolysis reaction in the presence (red line) or absence (black line) of IODVA1. (J) Sedimentation assay of liposomal Rac1-GDP in the presence of IODVA1 (2 μM). Rac1 was visualized by immunoblotting from pellet (p) and soluble (s) fractions. (K) Stopped-flow measurement of GDI (10 μM) interaction with fluorescently-labelled Rac1 in the absence (black line) or presence (orange line) of IODVA1.
(§2) Expression of BCR-ABL1 increases the phosphorylation levels of JNK, S6, 4EBP, PAK, and AKT by more than 2.5 times (FIG. 13B). IODVA1 decreases the phosphorylation levels of JNK by 1.8 (p=0.015), S6 by 1.5 (p=0.05), 4EBP by 3.0 (p=0.009), and PAK by 6.1 (p=0.004) fold, respectively. […] The decrease in JNK, S6, and 4EBP activity in IODVA1-treated Ba/F3 cells mirrors the decrease observed in LDBM cells from IODVA1-treated p210-T315I mice in pharmacodynamics studies (FIG. 12C). Together, our in vitro and in vivo data are consistent with IODVA1 targeting activation of Rac and its downstream signaling.

[3] = system: pJNK, pS6, p4EBP, pPAK1, pAKT in p190-BCR-ABL expressing Ba/F3 cells; assay: Phospho-flow cytometry of effectors; type: cell-based, murine; settings: 3 μM, 30 min
Method: as §1, §2

[4] = system: Vav3−/− leukemic cells expressing full-length Vav3; assay: Vav3 rescue, colony formation assay; type: cell-based, murine; settings: 10 μM; 200 with vehicle
From the text: (§3) FIG. 15: Expression of transgenic Vav3 re-sensitizes Vav3-deficient cells to IODVA1. (A) Vav3 domain structure, calponin-homology (CH), acidic region (Ac), Dbl-homology (DH), pleckstrin-homology (PH), zinc finger (ZF), Src-homology 2 and 3 (SH2/SH3). (B) Representative histogram data of the cell cycle analysis of wild-type (Vav3^+/+) and Vav3-deficient (Vav3^−/−) p190-BCR-ABL1 leukemic bone marrow cells expressing empty vector, full-length Vav3 or ΔCH mutant and treated with vehicle control (black) or IODVA1 at 5 (red) or 10 μM (dark grey) for 18 h. (C) Quantification of the average number of colonies made by bone marrow wild-type and Vav3^−/− p190-BCR-ABL1 leukemic bone marrow cells expressing empty vector, full-length Vav3 or ΔCH mutant and treated with vehicle control (black) or IODVA1 at 1 (light salmon), 5 (red) and 10 μM (dark grey). *** p≤0.001. […]
(§4) For Vav3 rescue experiments, low density bone marrow cells from wild-type ([…]) or Vav3^−/− mice were transduced with bicistronic retroviral vector encoding p190 BCR-ABL1-IRES-YFP (yellow fluorescent protein) and YFP^+ cells were sorted 48 h post-transduction. […] Cell cycle was analyzed at 18 h post BrdU incorporation. […]

[5] = system: Vav3−/− leukemic cells expressing ΔCH Vav3; assay: Vav3 rescue, colony formation assay; type: cell-based, murine; settings: 1, 5, and 10 μM
From the text: as §3, §4

OC1(c2ccccn2)N=C(Nc2nc3ccccc3[nH]2)N=C1c1ccccn1 (stereo not drawn) [IODVA1, (Z)-2-((1H-benzo[d]imidazol-2-yl)imino)-4,5-di(pyridin-2-yl)-2,5-dihydro-1H-imidazol-5-ol]
levels of pPAK4/5/6 [1]: did not change | decrease in the phosphorylation levels of effectors [2]: but not empty vector-expressing cells | phosphorylation levels of AKT ([3]; regardless of BCR-ABL status): did not affect | decrease in phosphorylation level of PAK ([3]; p=0.004): 6.1 fold | decrease in phosphorylation level of 4EBP ([3]; p=0.009): 3.0 fold | decrease in phosphorylation level of JNK ([3]; p=0.015): 1.8 fold | decrease in phosphorylation level of S6 ([3]; p=0.05): 1.5 fold | number of colonies [4]: 75 colonies | response in colony formation [5]: respond less

Source: patent publication US11564913B2, “Compositions and methods for treating cancer” (Children's Hospital Medical Center, priority 2019, dated 2023)
